“And” between values parts separate entries of the source, which are not always exact repeats. Equal values may be shown once.
Tested on: Mus musculus
Assay: Analgesic activity in albino mouse assessed as protection at 10 mg/kg, ip measured after 60 mins by hot plate test (reference value: 0 %)
Type: functional
Details: 1 h

Row | Structure (SMILES) | Activity
1 | COc1cc(/C=C/C(=O)CC(=O)/C=C/c2ccc(O)c(OC)c2)ccc1O [CURCUMIN] | 35.1%

Tested on: Mus musculus
Assay: Analgesic activity in albino mouse assessed protection against acetic acid-induced abdominal writhing at 10 mg/kg, ip pretreated for 1 hr followed by acetic acid challenge and measured starting 5 mins post acetic acid challenge for 10 mins relative to control (reference value: 0 %)
Type: functional
Details: time 75 min, 1.25 h

Row | Structure (SMILES) | Activity
2 | COc1cc(/C=C/C(=O)CC(=O)/C=C/c2ccc(O)c(OC)c2)ccc1O [CURCUMIN] | 52.1%

Tested on: Peritoneal macrophage
Assay: Antiinflammatory activity in […] mouse Peritoneal macrophages assessed as reduction in LPS-induced NO production by measuring reduction in stimulation index at 10 uM preincubated for 1 hr followed by LPS stimulation measured after 24 hrs by Griess method (reference value: 27.31 +/- 2.56 uM)
Type: functional
Details: time 25 hrs

Row | Structure (SMILES) | Activity
3 | COc1cc(/C=C/C(=O)CC(=O)/C=C/c2ccc(O)c(OC)c2)ccc1O [CURCUMIN] | 17.18 µM

Tested on: not listed separately
Assay: Ulcerogenic activity in fasted albino mouse assessed as average severity of ulcers in gastric mucosa at 10 mg/kg, po for 3 days (reference value: 0)
Type: toxicity, organism-based
Details: in vivo, 72 h, time 3 day

Row | Structure (SMILES) | Activity
4 | COc1cc(/C=C/C(=O)CC(=O)/C=C/c2ccc(O)c(OC)c2)ccc1O [CURCUMIN] | 0.33

Tested on: Rattus norvegicus
Assay: Antiinflammatory activity in Wistar rat model of carrageenan-induced paw edema assessed as reduction in thickness of paw edema at 10 mg/kg, ip pretreated for 1 hr followed by carrageenan challenge and measured after 1 hr (reference value: 2.41 +/-0.05 mm)
Type: functional
Details: time 1 hr after carrageenan

Row | Structure (SMILES) | Activity
5 | COc1cc(/C=C/C(=O)CC(=O)/C=C/c2ccc(O)c(OC)c2)ccc1O [CURCUMIN] | 2.12 mm

Tested on: Mus musculus
Assay: Analgesic activity in albino mouse assessed reduction in acetic acid-induced abdominal writhing by measuring writing reflex at 10 mg/kg, ip pretreated for 1 hr followed by acetic acid challenge and measured starting 5 mins post acetic acid challenge for 10 mins (reference value: 42.4 +/- 1.02)
Type: functional
Details: time 75 min, 1.25 h

Row | Structure (SMILES) | Activity
6 | COc1cc(/C=C/C(=O)CC(=O)/C=C/c2ccc(O)c(OC)c2)ccc1O [CURCUMIN] | 20.3

Tested on: not listed separately
Assay: Ulcerogenic activity in fasted albino mouse assessed as incidence of gastric ulceration at 10 mg/kg, po for 3 days (reference value: 0 %)
Type: toxicity, organism-based
Details: in vivo, 72 h, time 3 day

Row | Structure (SMILES) | Activity
7 | COc1cc(/C=C/C(=O)CC(=O)/C=C/c2ccc(O)c(OC)c2)ccc1O [CURCUMIN] | 3.33%

Tested on: Candida albicans
Assay: Antifungal activity against Candida albicans incubated for 18 to 24 hrs by CLSI method
Type: functional
Details: time 18-24 hrs

Row | MIC | Structure (SMILES)
8 | 0.125 µg/mL and 0.339 µM | COc1cc(/C=C/C(=O)CC(=O)/C=C/c2ccc(O)c(OC)c2)ccc1O [CURCUMIN]

Tested on: Mus musculus
Assay: Analgesic activity in albino mouse assessed as protection at 10 mg/kg, ip measured after 120 mins by hot plate test (reference value: 0 %)
Type: functional
Details: 2 h

Row | Structure (SMILES) | Activity
9 | COc1cc(/C=C/C(=O)CC(=O)/C=C/c2ccc(O)c(OC)c2)ccc1O [CURCUMIN] | 32.1%

Tested on: Pseudomonas aeruginosa
Assay: Antibacterial activity against Pseudomonas aeruginosa ATCC 27853 incubated for 18 hrs by agar dilution assay
Type: functional
Details: not given

Row | MIC | Structure (SMILES)
10 | 0.125 µg/mL and 0.339 µM | COc1cc(/C=C/C(=O)CC(=O)/C=C/c2ccc(O)c(OC)c2)ccc1O [CURCUMIN]

Tested on: Rattus norvegicus
Assay: Antiinflammatory activity in Wistar rat model of carrageenan-induced paw edema assessed as reduction in thickness of paw edema at 10 mg/kg, ip pretreated for 1 hr followed by carrageenan challenge and measured after 3 hrs (reference value: 1.79 +/-0.07 mm)
Type: functional
Details: time 4 hrs

Row | Structure (SMILES) | Activity
11 | COc1cc(/C=C/C(=O)CC(=O)/C=C/c2ccc(O)c(OC)c2)ccc1O [CURCUMIN] | 0.45 mm

Tested on: Mus musculus
Assay: Analgesic activity in albino mouse assessed as forepaw licking/jumping latency time at 10 mg/kg, ip measured after 60 mins by hot plate test (reference value: 3.42 +/- 0.03 sec)
Type: functional
Details: 1 h

Row | Structure (SMILES) | Time
12 | COc1cc(/C=C/C(=O)CC(=O)/C=C/c2ccc(O)c(OC)c2)ccc1O [CURCUMIN] | 4.62 s

Tested on: Mus musculus
Assay: Analgesic activity in albino mouse assessed protection against acetic acid-induced abdominal writhing at 10 mg/kg, ip pretreated for 1 hr followed by acetic acid challenge and measured starting 5 mins post acetic acid challenge for 10 mins relative to indomethacin
Type: functional
Details: time 75 min, 1.25 h

Row | Structure (SMILES) | Activity
13 | COc1cc(/C=C/C(=O)CC(=O)/C=C/c2ccc(O)c(OC)c2)ccc1O [CURCUMIN] | 84.6%

Tested on: not listed separately
Assay: Ulcerogenic activity in fasted albino mouse assessed as average number of ulcers in gastric mucosa at 10 mg/kg, po for 3 days (reference value: 0)
Type: toxicity, organism-based
Details: in vivo, 72 h, time 3 day

Row | Structure (SMILES) | Activity
14 | COc1cc(/C=C/C(=O)CC(=O)/C=C/c2ccc(O)c(OC)c2)ccc1O [CURCUMIN] | 0.33

Tested on: Peritoneal macrophage
Assay: Antiinflammatory activity in […] mouse Peritoneal macrophages assessed as inhibition of LPS-induced NO production at 10 uM preincubated for 1 hr followed by LPS stimulation measured after 24 hrs by Griess method relative to control (reference value: 0.0 %)
Type: functional
Design: scale not given: the % may be the effect or the level left
Details: time 25 hrs

Row | Structure (SMILES) | Activity
15 | COc1cc(/C=C/C(=O)CC(=O)/C=C/c2ccc(O)c(OC)c2)ccc1O [CURCUMIN] | 37.11%

Tested on: Rattus norvegicus
Assay: Anti-inflammatory activity in Wistar rat assessed as inhibition of carrageenan-induced paw edema at 10 mg/kg, ip pretreated for 1 hr followed by carrageenan challenge and measured after 4 hr relative to control (reference value: 0.00 +/-0.4 %)
Type: functional
Details: time 5 hrs

Row | Structure (SMILES) | inhibition in vivo at 10 mg/kg
16 | COc1cc(/C=C/C(=O)CC(=O)/C=C/c2ccc(O)c(OC)c2)ccc1O [CURCUMIN] | 85%

Tested on: Rattus norvegicus
Assay: Anti-inflammatory activity in Wistar rat assessed as inhibition of carrageenan-induced paw edema at 10 mg/kg, ip pretreated for 1 hr followed by carrageenan challenge and measured after 2 hr relative to control (reference value: 0.00 +/-0.03 %)
Type: functional
Details: time 3 hrs

Row | Structure (SMILES) | inhibition in vivo at 10 mg/kg
17 | COc1cc(/C=C/C(=O)CC(=O)/C=C/c2ccc(O)c(OC)c2)ccc1O [CURCUMIN] | 60%

Tested on: Mus musculus
Assay: Analgesic activity in albino mouse assessed as forepaw licking/jumping latency time at 10 mg/kg, ip measured after 120 mins by hot plate test (reference value: 2.62 +/- 0.06 sec)
Type: functional
Details: 2 h

Row | Structure (SMILES) | Time
18 | COc1cc(/C=C/C(=O)CC(=O)/C=C/c2ccc(O)c(OC)c2)ccc1O [CURCUMIN] | 3.46 s
